Test results from ChEMBL document CHEMBL1201862, “PubChem BioAssay data set” (2004).
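Tested at 5 concentrations; 48 h exposure; 96-well plates; endpoints linearly interpolated, else capped at highest concentration. GI50 = concentration required for 50% inhibition of growth.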 Active and inactive are the calls of the source. Rule as the data show it: active = GI50 up to about 1.1 µM and inactive = higher. Square brackets hold non-standard residues; d marks the D form. Peptide text beside a SMILES is read from it. * marks the point of attachment. ξ: configuration not given here. Propanoyl(3-(4-MeO-Ph)) = COc1ccc(CCC(=O)*)cc1; Thr(3ξ) = CC(O)[C@H](N)C(=O)O; dNMeL = CN[C@H](CC(C)C)C(=O)O; ξLac = CC(O)C(=O)O

How the values were obtained:
Assay in all cases: NCI anticancer screen, dose series, 48 h
786-0 = test system: 786-0
A498 = test system: A498
A549 = test system: A549
ACHN = test system: ACHN
BT-549 = test system: BT-549
CAKI-1 = test system: CAKI-1
CCRF-CEM = test system: CCRF-CEM
COLO 205 = test system: COLO 205
DU-145 = test system: DU-145
EKVX = test system: EKVX
HCC 2998 = test system: HCC 2998
HCT-116 = test system: HCT-116
HCT-15 = test system: HCT-15
HL-60 = test system: HL-60
HOP-62 = test system: HOP-62
HOP-92 = test system: HOP-92
HT-29 = test system: HT-29
Hs-578T = test system: Hs-578T
IGROV-1 = test system: IGROV-1
K562 = test system: K562
KM12 = test system: KM12
LOX IMVI = test system: LOX IMVI
M14 = test system: M14
MCF7 = test system: MCF7
MDA-MB-231 = test system: MDA-MB-231
MDA-MB-435 = test system: MDA-MB-435
MDA-N = test system: MDA-N
MOLT-4 = test system: MOLT-4
Malme-3M = test system: Malme-3M
NCI-H226 = test system: NCI-H226
NCI-H23 = test system: NCI-H23
NCI-H460 = test system: NCI-H460
NCI-H522 = test system: NCI-H522
NCI/ADR-RES = test system: NCI/ADR-RES
OVCAR-3 = test system: OVCAR-3
OVCAR-4 = test system: OVCAR-4
OVCAR-5 = test system: OVCAR-5
OVCAR-8 = test system: OVCAR-8
PC-3 = test system: PC-3
RPMI-8226 = test system: RPMI-8226
RXF 393 = test system: RXF 393
SF-268 = test system: SF-268
SF-295 = test system: SF-295
SF-539 = test system: SF-539
SK-MEL-28 = test system: SK-MEL-28
SK-MEL-2 = test system: SK-MEL-2
SK-MEL-5 = test system: SK-MEL-5
SK-OV-3 = test system: SK-OV-3
SN12C = test system: SN12C
SNB-19 = test system: SNB-19
SNB-75 = test system: SNB-75
SR = test system: SR
SW-620 = test system: SW-620
T47D = test system: T47D
TK-10 = test system: TK-10
U-251 = test system: U-251
UACC-257 = test system: UACC-257
UACC-62 = test system: UACC-62
UO-31 = test system: UO-31

COC(=O)[C@@H](NC(=O)[C@@H](CC(C)C)N(C)C(=O)[C@@H]1CCCN1C(=O)C(C)O)C(C)OC(=O)CCc1ccc(OC)cc1 (stereo partly specified) (H-[ξLac]P[dNMeL][Thr(3ξ)](Propanoyl(3-(4-MeO-Ph)))-OMe)
GI50 (786-0): > 100 µM (inactive) | GI50 (A498): > 100 µM (inactive) | GI50 (A549): > 100 µM (inactive) | GI50 (ACHN): > 100 µM (inactive) | GI50 (BT-549): > 100 µM (inactive) | GI50 (CAKI-1): > 100 µM (inactive) | GI50 (CCRF-CEM): > 100 µM (inactive) | GI50 (COLO 205): > 100 µM (inactive) | GI50 (DU-145): > 100 µM (inactive) | GI50 (EKVX): > 100 µM (inactive) | GI50 (HCC 2998): > 100 µM (inactive) | GI50 (HCT-116): > 100 µM (inactive) | GI50 (HCT-15): > 100 µM | GI50 (HL-60): > 100 µM (inactive) | GI50 (HOP-62): > 100 µM (inactive) | GI50 (HOP-92): > 100 µM (inactive) | GI50 (HT-29): > 100 µM (inactive) | GI50 (Hs-578T): > 100 µM (inactive) | GI50 (IGROV-1): > 100 µM (inactive) | GI50 (K562): > 100 µM (inactive) | GI50 (KM12): > 100 µM (inactive) | GI50 (LOX IMVI): > 100 µM (inactive) | GI50 (M14): > 100 µM (inactive) | GI50 (MCF7): > 100 µM (inactive) | GI50 (MDA-MB-231): > 100 µM (inactive) | GI50 (MDA-MB-435): > 100 µM (inactive) | GI50 (MDA-N): > 100 µM (inactive) | GI50 (MOLT-4): 60.5 µM (inactive) | GI50 (Malme-3M): > 100 µM (inactive) | GI50 (NCI-H226): > 100 µM (inactive) | GI50 (NCI-H23): > 100 µM (inactive) | GI50 (NCI-H460): > 100 µM (inactive) | GI50 (NCI-H522): > 100 µM (inactive) | GI50 (NCI/ADR-RES): > 100 µM (inactive) | GI50 (OVCAR-3): > 100 µM (inactive) | GI50 (OVCAR-4): > 100 µM (inactive) | GI50 (OVCAR-5): > 100 µM (inactive) | GI50 (OVCAR-8): > 100 µM (inactive) | GI50 (PC-3): > 100 µM (inactive) | GI50 (RPMI-8226): > 100 µM (inactive) | GI50 (RXF 393): > 100 µM (inactive) | GI50 (SF-268): > 100 µM (inactive) | GI50 (SF-295): > 100 µM (inactive) | GI50 (SF-539): > 100 µM (inactive) | GI50 (SK-MEL-28): > 100 µM (inactive) | GI50 (SK-MEL-2): > 100 µM (inactive) | GI50 (SK-MEL-5): > 100 µM (inactive) | GI50 (SK-OV-3): > 100 µM (inactive) | GI50 (SN12C): > 100 µM (inactive) | GI50 (SNB-19): > 100 µM (inactive) | GI50 (SNB-75): > 100 µM (inactive) | GI50 (SR): > 100 µM (inactive) | GI50 (SW-620): > 100 µM (inactive) | GI50 (T47D): > 100 µM (inactive) | GI50 (TK-10): > 100 µM (inactive) | GI50 (U-251): > 100 µM (inactive) | GI50 (UACC-257): > 100 µM (inactive) | GI50 (UACC-62): > 100 µM (inactive) | GI50 (UO-31): > 100 µM (inactive)

Nc1nc(Cl)cc(NCC2(O)CCC2)n1
GI50 (786-0): > 100 µM (inactive) | GI50 (A498): > 100 µM (inactive) | GI50 (A549): > 100 µM (inactive) | GI50 (ACHN): > 100 µM (inactive) | GI50 (BT-549): > 100 µM (inactive) | GI50 (CAKI-1): > 100 µM (inactive) | GI50 (CCRF-CEM): > 10 µM (inactive) | GI50 (COLO 205): > 100 µM (inactive) | GI50 (DU-145): > 100 µM (inactive) | GI50 (EKVX): > 100 µM (inactive) | GI50 (HCC 2998): > 100 µM (inactive) | GI50 (HCT-116): > 100 µM (inactive) | GI50 (HCT-15): > 100 µM | GI50 (HL-60): > 100 µM (inactive) | GI50 (HOP-62): > 100 µM (inactive) | GI50 (HOP-92): > 100 µM (inactive) | GI50 (HT-29): > 100 µM (inactive) | GI50 (Hs-578T): > 100 µM (inactive) | GI50 (IGROV-1): > 100 µM (inactive) | GI50 (K562): > 100 µM (inactive) | GI50 (KM12): > 100 µM (inactive) | GI50 (LOX IMVI): > 100 µM (inactive) | GI50 (MCF7): > 100 µM (inactive) | GI50 (MDA-MB-231): > 100 µM (inactive) | GI50 (MDA-MB-435): > 100 µM (inactive) | GI50 (MDA-N): > 100 µM (inactive) | GI50 (MOLT-4): > 100 µM (inactive) | GI50 (Malme-3M): > 100 µM (inactive) | GI50 (NCI-H226): > 100 µM (inactive) | GI50 (NCI-H23): > 100 µM (inactive) | GI50 (NCI-H460): > 100 µM (inactive) | GI50 (NCI-H522): > 100 µM (inactive) | GI50 (NCI/ADR-RES): > 100 µM (inactive) | GI50 (OVCAR-3): > 100 µM (inactive) | GI50 (OVCAR-4): > 100 µM (inactive) | GI50 (OVCAR-5): > 100 µM (inactive) | GI50 (OVCAR-8): > 100 µM (inactive) | GI50 (PC-3): > 100 µM (inactive) | GI50 (RPMI-8226): > 100 µM (inactive) | GI50 (RXF 393): > 100 µM (inactive) | GI50 (SF-268): > 100 µM (inactive) | GI50 (SF-295): > 100 µM (inactive) | GI50 (SF-539): > 100 µM (inactive) | GI50 (SK-MEL-28): > 100 µM (inactive) | GI50 (SK-MEL-2): > 100 µM (inactive) | GI50 (SK-MEL-5): > 100 µM (inactive) | GI50 (SK-OV-3): > 100 µM (inactive) | GI50 (SN12C): > 100 µM (inactive) | GI50 (SNB-75): > 100 µM (inactive) | GI50 (SR): > 100 µM (inactive) | GI50 (SW-620): > 100 µM (inactive) | GI50 (T47D): > 100 µM (inactive) | GI50 (TK-10): > 100 µM (inactive) | GI50 (U-251): > 100 µM (inactive) | GI50 (UACC-257): > 100 µM (inactive) | GI50 (UACC-62): > 100 µM (inactive) | GI50 (UO-31): 56.5 µM (inactive)
